Assay results as given in patent US12264158B2, “Protein kinase MKK4 inhibitors for promoting liver regeneration or reducing or preventing hepatocyte death” (HEPAREGENIX GMBH, priority 2018, dated 2025).

Columns and labels:
MEKK2 = target: T1, MEKK2 (Homo sapiens, UniProt Q9Y2U5); test: Radiometric protein kinase assay, MEKK2; type: biochemical; settings: substrate Casein, ATP 0.2 μM; read-out: MEKK2, potency derived from IC50-values
T1 construct: purchased ProQinase #0583-0000-1
T1 sequence (Q9Y2U5 1-619): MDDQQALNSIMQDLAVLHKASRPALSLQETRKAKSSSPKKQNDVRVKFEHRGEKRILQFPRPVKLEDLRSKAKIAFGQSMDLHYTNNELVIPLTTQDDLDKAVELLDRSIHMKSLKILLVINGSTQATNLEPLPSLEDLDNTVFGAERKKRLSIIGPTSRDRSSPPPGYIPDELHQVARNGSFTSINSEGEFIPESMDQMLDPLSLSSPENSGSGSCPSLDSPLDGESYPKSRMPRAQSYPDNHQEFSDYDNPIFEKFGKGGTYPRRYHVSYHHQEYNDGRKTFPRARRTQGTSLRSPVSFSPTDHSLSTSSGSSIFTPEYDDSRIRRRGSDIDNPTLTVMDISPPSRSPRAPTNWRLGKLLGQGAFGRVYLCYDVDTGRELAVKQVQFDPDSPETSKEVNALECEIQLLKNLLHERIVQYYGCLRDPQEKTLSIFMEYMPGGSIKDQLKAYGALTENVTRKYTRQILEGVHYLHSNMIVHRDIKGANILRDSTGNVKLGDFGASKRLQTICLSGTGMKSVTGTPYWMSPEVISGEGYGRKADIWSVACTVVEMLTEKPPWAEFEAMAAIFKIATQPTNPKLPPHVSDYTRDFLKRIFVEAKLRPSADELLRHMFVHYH
Protocol: A radiometric protein kinase assay was used for measuring the kinase activity of the respective protein kinases. All kinase assays were performed in 96-well polypropylene plates. After the reactions were stopped, the assay mixtures were transferred to 96-well MSFC filter-plates (Millipore). The reaction mix was passed through the filter membrane by aspiration, the membrane was washed 3 times with 150 mM H3PO4, once with ethanol, dried and liquid scintillation cocktail was added. Radioactivity was determined by counting of the samples in a Microbeta multiwell scintillation counter (Wallac).

MKK4 = target: T2, MKK4 (Homo sapiens, UniProt P45985); test: KINOMEscan competition binding assay, MKK4 potency; settings: concentration of 100 nM
T2 construct: S84/D399; host or cells: HEK-293
T2 sequence (P45985 84-399): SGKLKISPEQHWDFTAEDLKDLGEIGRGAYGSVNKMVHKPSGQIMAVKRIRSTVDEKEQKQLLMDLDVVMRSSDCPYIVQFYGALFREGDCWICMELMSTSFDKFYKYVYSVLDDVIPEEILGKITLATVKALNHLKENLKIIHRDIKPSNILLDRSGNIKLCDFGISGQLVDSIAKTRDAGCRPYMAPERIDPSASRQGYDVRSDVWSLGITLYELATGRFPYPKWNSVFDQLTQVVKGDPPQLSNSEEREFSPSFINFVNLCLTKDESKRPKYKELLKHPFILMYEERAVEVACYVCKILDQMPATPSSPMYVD
Protocol: (§1) The assay was performed by combining three components: DNA-tagged kinase; immobilized ligand; and a test compound. The ability of the test compound to compete with the immobilized ligand was measured via quantitative PCR of the DNA tag. The technology is described in detail in Fabian, M. A. et al. A small molecule-kinase interaction map for clinical kinase inhibitors. Nat. […] M. W. et al. A quantitative analysis of kinase inhibitor selectivity, Nat.
(§2) For investigation of the affinity to MKK4, MKK7 and JNK1, the kinases were produced in HEK-293 cells and subsequently tagged with DNA for qPCR detection. […] The liganded beads were blocked with excess biotin and washed with blocking buffer (SEABLOCK™ (Pierce), 1% BSA, 0.05% TWEEN®20, 1 mM DTT) to remove unbound ligand and to reduce nonspecific binding. […] All reactions were performed in polystyrene 96-well plates in a final volume of 0.135 mL. […] The kinase concentration in the eluates was measured by qPCR.
(§3) The test compounds were provided as 10 mM stock solutions. The test solutions at indicated final concentrations were prepared at DiscoverX.

JNK1 = target: T3, JNK1 (Homo sapiens, UniProt P45983); test: KINOMEscan competition binding assay, selectivity against off-target JNK1; settings: concentration of 100 nM
T3 construct: M1/Q384; host or cells: HEK-293
Protocol: as §1, §2, §3

MKK7 = target: T4, MKK7 (Homo sapiens, UniProt O14733); test: KINOMEscan competition binding assay, selectivity against off-target MKK7; settings: concentration of 100 nM
T4 construct: M1/R419; host or cells: HEK-293
T4 sequence (O14733 1-419): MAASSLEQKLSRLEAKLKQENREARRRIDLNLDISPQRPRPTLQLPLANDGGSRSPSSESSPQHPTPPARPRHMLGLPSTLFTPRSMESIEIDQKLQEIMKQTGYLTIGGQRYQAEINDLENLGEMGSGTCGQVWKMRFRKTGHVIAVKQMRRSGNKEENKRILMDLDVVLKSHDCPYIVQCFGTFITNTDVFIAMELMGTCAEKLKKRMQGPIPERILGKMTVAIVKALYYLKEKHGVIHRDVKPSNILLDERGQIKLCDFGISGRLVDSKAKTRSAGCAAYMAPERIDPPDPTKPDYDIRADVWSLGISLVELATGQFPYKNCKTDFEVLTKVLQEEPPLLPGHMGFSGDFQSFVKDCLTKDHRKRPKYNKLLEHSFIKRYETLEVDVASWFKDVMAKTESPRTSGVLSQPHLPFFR
Protocol: as §1, §2, §3

BRaf = BRaf (Homo sapiens, UniProt P15056); test: KINOMEscan competition binding assay, selectivity against off-target BRaf; settings: concentration of 100 nM
Protocol: as §1, §3

T3 sequence (P45983 1-384 isoform P45983-2): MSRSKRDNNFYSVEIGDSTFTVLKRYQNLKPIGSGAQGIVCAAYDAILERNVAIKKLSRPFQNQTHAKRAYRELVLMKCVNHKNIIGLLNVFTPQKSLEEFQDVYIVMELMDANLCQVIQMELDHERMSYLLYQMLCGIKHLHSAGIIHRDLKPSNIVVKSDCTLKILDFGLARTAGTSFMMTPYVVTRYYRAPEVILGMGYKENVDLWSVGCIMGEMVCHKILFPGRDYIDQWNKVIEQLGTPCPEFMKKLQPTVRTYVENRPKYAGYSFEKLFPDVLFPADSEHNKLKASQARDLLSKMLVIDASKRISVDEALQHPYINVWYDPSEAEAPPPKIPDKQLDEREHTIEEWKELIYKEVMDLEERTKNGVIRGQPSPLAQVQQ
BRaf, sequence (P15056 whole entry): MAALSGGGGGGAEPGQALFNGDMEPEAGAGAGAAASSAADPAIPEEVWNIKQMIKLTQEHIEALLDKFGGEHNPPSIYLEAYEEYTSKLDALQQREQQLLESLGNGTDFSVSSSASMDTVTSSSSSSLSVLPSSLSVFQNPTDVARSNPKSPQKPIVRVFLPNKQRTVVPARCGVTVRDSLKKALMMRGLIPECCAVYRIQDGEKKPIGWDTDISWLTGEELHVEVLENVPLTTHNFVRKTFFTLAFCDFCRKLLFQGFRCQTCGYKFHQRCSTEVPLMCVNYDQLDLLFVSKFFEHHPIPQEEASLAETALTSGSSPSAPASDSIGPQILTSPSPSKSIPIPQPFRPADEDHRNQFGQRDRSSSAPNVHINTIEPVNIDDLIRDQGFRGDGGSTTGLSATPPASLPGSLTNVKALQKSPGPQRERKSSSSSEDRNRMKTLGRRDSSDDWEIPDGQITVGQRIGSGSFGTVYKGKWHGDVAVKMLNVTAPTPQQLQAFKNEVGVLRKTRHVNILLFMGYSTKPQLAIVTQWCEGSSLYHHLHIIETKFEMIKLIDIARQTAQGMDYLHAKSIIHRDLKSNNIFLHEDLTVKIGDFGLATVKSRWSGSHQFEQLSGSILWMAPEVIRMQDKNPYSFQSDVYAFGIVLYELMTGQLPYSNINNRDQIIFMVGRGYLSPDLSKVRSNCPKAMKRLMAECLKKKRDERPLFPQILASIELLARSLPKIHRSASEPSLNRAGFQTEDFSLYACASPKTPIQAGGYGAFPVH

Structure (SMILES) | IC50 (MEKK2) [µM] | MKK4, residual percent of control binding (PoC) (MKK4) | Selectivity vs. JNK1, ratio PoC(JNK1)/PoC(MKK4) (JNK1) | Selectivity vs. MKK7, ratio PoC(MKK7)/PoC(MKK4) (MKK7) | Selectivity vs. BRaf, ratio PoC(BRaf)/PoC(MKK4) (BRaf)
CCCS(=O)(=O)Nc1c(F)ccc(C(=O)c2n[nH]c3ncc(-c4ccc(S(N)(=O)=O)cc4C)cc23)c1F [Example 70, 4-(3-(2,4-difluoro-3-(propylsulfonamido)benzoyl)-1H-pyrazolo[3,4-b]pyridin-5-yl)-3-methylbenzenesulfonamide] | 0.5 to 1 | – | – | – | –
CCCS(=O)(=O)Nc1c(F)ccc(C(=O)c2n[nH]c3ncc(-c4ccc(Cl)cc4C)cc23)c1F [Example 72] | 1 to 10 | – | – | – | –
CCCCS(=O)(=O)Nc1cccc(C(=O)c2n[nH]c3ncc(-c4ccc(OC)cc4Cl)cc23)c1F [Example 41, N-(3-(5-(2-chloro-4-methoxy-phenyl)-1H-pyrazolo[3,4-b]pyridine-3-carbonyl)-2-fluorophenyl)-butane-1-sulfonamide] | > 10 | – | – | – | –
CS(=O)(=O)Nc1cccc(C(=O)c2n[nH]c3ncc(-c4ccc5c(c4)OCCO5)cc23)c1F [Example 40, N-(3-(5-(2,3-dihydro-benzo-[b][1,4]dioxin-6-yl)-1H-pyrazolo[3,4-b]pyridine-3-carbonyl)-2-fluoro-phenyl)-methanesulfonamide] | > 10 | – | – | – | –
CCCS(=O)(=O)Nc1ccc(F)c(C(=O)c2n[nH]c3ncc(-c4ccc(C(C)C)cc4)cc23)c1F [Example 11, N-(2,4-difluoro-3-(5-(4-isopropylphenyl)-1H-pyrazo-lo[3,4-b]pyridine-3-carbonyl)phenyl)propane-1-sulfon-amide] | – | + (10 ≤ PoC < 30) | + (10 > PoC(JNK1)/PoC(MKK4) ≥ 3) | + (10 > PoC(MKK7)/PoC(MKK4) ≥ 3) | + (10 > PoC(BRaf)/PoC(MKK4) ≥ 3)
CCCS(=O)(=O)Nc1ccc(F)c(NC(=O)c2n[nH]c3ncc(-c4ccc(Cl)cc4)cc23)c1F [Example 45, 5-(4-chlorophenyl)-N-(2,6-difluoro-3-(propylsulfonamido)phenyl)-1H-pyrazolo[3,4-b]pyridine-3-carboxamide] | – | O (PoC ≥ 30) | O (PoC(JNK1)/PoC(MKK4) < 3) | O (PoC(MKK7)/PoC(MKK4) < 3) | O (PoC(BRaf)/PoC(MKK4) < 3)
CCCS(=O)(=O)Nc1ccc(F)c(C(=O)c2n[nH]c3ncc(-c4cccc(Cl)c4)cc23)c1F [Example 7, N-(3-(5-(3-chlorophenyl)-1H-pyrazolo[3,4-b]pyridine-3-carbonyl)-2,4-difluorophenyl)-propane-1-sulfonamide] | – | O (PoC ≥ 30) | O (PoC(JNK1)/PoC(MKK4) < 3) | O (PoC(MKK7)/PoC(MKK4) < 3) | O (PoC(BRaf)/PoC(MKK4) < 3)
CCCS(=O)(=O)Nc1ccc(F)c(C(=O)c2n[nH]c3ncc(-c4ccc(OC)cc4)cc23)c1F [Example 6, N-(2,4-difluoro-3-(5-(4-methoxyphenyl)-1H-pyrazo-lo[3,4-b]pyridine-3-carbonyl)-phenyl)propane-1-sulfon-amide] | – | ++ (1 ≤ PoC < 10) | ++ (30 > PoC(JNK1)/PoC(MKK4) ≥ 10) | ++ (30 > PoC(MKK7)/PoC(MKK4) ≥ 10) | O (PoC(BRaf)/PoC(MKK4) < 3)
CCCS(=O)(=O)Nc1ccc(F)c(C(=O)c2n[nH]c3ncc(-c4cccc(C)c4)cc23)c1F [Example 29, N-(2,4-difluoro-3-(5-m-tolyl-1H-pyrazolo[3,4-b]pyridine-3-carbonyl)phenyl)propane-1-sulfonamide] | – | + (10 ≤ PoC < 30) | + (10 > PoC(JNK1)/PoC(MKK4) ≥ 3) | + (10 > PoC(MKK7)/PoC(MKK4) ≥ 3) | O (PoC(BRaf)/PoC(MKK4) < 3)
CCCS(=O)(=O)Nc1ccc(F)c(C(=O)c2n[nH]c3ncc(-c4ccccc4N)cc23)c1F [Example 26, N-(3-(5-(2-aminophenyl)-1H-pyrazolo[3,4-b]pyridine-3-carbonyl)-2,4-difluorophenyl)-propane-1-sulfonamide] | – | + (10 ≤ PoC < 30) | + (10 > PoC(JNK1)/PoC(MKK4) ≥ 3) | + (10 > PoC(MKK7)/PoC(MKK4) ≥ 3) | + (10 > PoC(BRaf)/PoC(MKK4) ≥ 3)
CCCS(=O)(=O)Nc1ccc(F)c([S+]([O-])c2n[nH]c3ncc(-c4ccc(Cl)cc4)cc23)c1F (stereo not shown) [Example 47, N-(3-((5-(4-chlorophenyl)-1H-pyrazolo[3,4-b]pyridin-3-yl)sulfinyl)-2,4-difluorophenyl)propane-1-sulfonamide] | – | O (PoC ≥ 30) | O (PoC(JNK1)/PoC(MKK4) < 3) | O (PoC(MKK7)/PoC(MKK4) < 3) | O (PoC(BRaf)/PoC(MKK4) < 3)
CCCS(=O)(=O)Nc1ccc(F)c(C(=O)c2n[nH]c3ncc(-c4ccc(C(C)(C)C)cc4)cc23)c1F [Example 10, N-(3-(5-(4-tert-butylphenyl)-1H-pyrazolo[3,4-b]pyridine-3-carbonyl)-2,4-difluoro-phenyl)propane-1-sulfon-amide] | – | O (PoC ≥ 30) | O (PoC(JNK1)/PoC(MKK4) < 3) | O (PoC(MKK7)/PoC(MKK4) < 3) | O (PoC(BRaf)/PoC(MKK4) < 3)
CCCS(=O)(=O)Nc1ccc(F)c(C(=O)c2n[nH]c3ncc(-c4ccc(Cl)c(Cl)c4)cc23)c1F [Example 33, N-(3-(5-(3,4-dichloro-phenyl)-1H-pyrazolo[3,4-b]pyridine-3-carbonyl)-2,4-difluoro-phenyl)-propane-1-sulfon-amide] | – | O (PoC ≥ 30) | O (PoC(JNK1)/PoC(MKK4) < 3) | O (PoC(MKK7)/PoC(MKK4) < 3) | O (PoC(BRaf)/PoC(MKK4) < 3)
